Source: the supplement of paper PMC10307832

How the values were obtained:
Assay in all cases: relative viability (nuclei count vs DMSO), 5 days (fraction); higher = more cells survive
Tozasertib + Pictilisib = compound: Cc1cc(Nc2cc(N3CCN(C)CC3)nc(Sc3ccc(NC(=O)C4CC4)cc3)n2)n[nH]1 [Tozasertib] + CS(=O)(=O)N1CCN(Cc2cc3nc(-c4cccc5[nH]ncc45)nc(N4CCOCC4)c3s2)CC1 [Pictilisib] (partner 1 µM)
How it was run: (§1)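 Lung cancer cell lines were seeded in 1536-well plates and dosed by pin tool the next day, with either a single drug or a fixed anchor-drug dose combined with five library-drug doses (not always all listed) spaced in √10 steps. Five days later, one step fixed the cells and stained their nuclei (final 0.05% Triton X-100, 1% formaldehyde, 1 ug/ml Hoechst), and nuclei were counted on 4× images. Relative viability is the nuclei count in treated wells divided by the count in vehicle wells, and each value is the median of duplicate plates.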

Tozasertib + Foretinib = compound: Cc1cc(Nc2cc(N3CCN(C)CC3)nc(Sc3ccc(NC(=O)C4CC4)cc3)n2)n[nH]1 [Tozasertib] + COc1cc2c(Oc3ccc(NC(=O)C4(C(=O)Nc5ccc(F)cc5)CC4)cc3F)ccnc2cc1OCCCN1CCOCC1 [Foretinib] (partner 0.25 µM)
How it was run: as §1

Tozasertib + Olaparib = compound: Cc1cc(Nc2cc(N3CCN(C)CC3)nc(Sc3ccc(NC(=O)C4CC4)cc3)n2)n[nH]1 [Tozasertib] + O=C(c1cc(Cc2n[nH]c(=O)c3ccccc23)ccc1F)N1CCN(C(=O)C2CC2)CC1 [Olaparib] (partner 8 µM)
How it was run: as §1

Tozasertib + Crizotinib = compound: Cc1cc(Nc2cc(N3CCN(C)CC3)nc(Sc3ccc(NC(=O)C4CC4)cc3)n2)n[nH]1 [Tozasertib] + C[C@@H](Oc1cc(-c2cnn(C3CCNCC3)c2)cnc1N)c1c(Cl)ccc(F)c1Cl [Crizotinib] (partner 1 µM)
How it was run: as §1

Tozasertib + Linsitinib = compound: Cc1cc(Nc2cc(N3CCN(C)CC3)nc(Sc3ccc(NC(=O)C4CC4)cc3)n2)n[nH]1 [Tozasertib] + C[C@]1(O)C[C@@H](c2nc(-c3ccc4ccc(-c5ccccc5)nc4c3)c3c(N)nccn32)C1 [Linsitinib] (partner 1 µM)
How it was run: as §1

| Cell Line | relative viability (Tozasertib + Pictilisib; first compound 0.004 µM) | relative viability (Tozasertib + Pictilisib; first compound 0.01265 µM) | relative viability (Tozasertib + Pictilisib; first compound 0.04 µM) | relative viability (Tozasertib + Pictilisib; first compound 0.1265 µM) | relative viability (Tozasertib + Foretinib; first compound 0.004 µM) | relative viability (Tozasertib + Foretinib; first compound 0.01265 µM) | relative viability (Tozasertib + Foretinib; first compound 0.04 µM) | relative viability (Tozasertib + Foretinib; first compound 0.1265 µM) | relative viability (Tozasertib + Olaparib; first compound 0.004 µM) | relative viability (Tozasertib + Olaparib; first compound 0.01265 µM) | relative viability (Tozasertib + Olaparib; first compound 0.04 µM) | relative viability (Tozasertib + Olaparib; first compound 0.1265 µM) | relative viability (Tozasertib + Crizotinib; first compound 0.004 µM) | relative viability (Tozasertib + Crizotinib; first compound 0.01265 µM) | relative viability (Tozasertib + Crizotinib; first compound 0.04 µM) | relative viability (Tozasertib + Crizotinib; first compound 0.1265 µM) | relative viability (Tozasertib + Linsitinib; first compound 0.004 µM) | relative viability (Tozasertib + Linsitinib; first compound 0.01265 µM) | relative viability (Tozasertib + Linsitinib; first compound 0.04 µM) | relative viability (Tozasertib + Linsitinib; first compound 0.1265 µM) |
| --- | --- | --- | --- | --- | --- | --- | --- | --- | --- | --- | --- | --- | --- | --- | --- | --- | --- | --- | --- | --- |
| ChaGo-K-1 | 0.849 | 0.676 | 0.771 | 0.256 | 0.939 | 0.874 | 0.813 | 0.249 | 0.4 | 0.386 | 0.407 | 0.372 | 1.19 | 1.12 | 0.957 | 0.331 | – | – | – | – |
| EKVX | 0.383 | 0.443 | 0.527 | 0.348 | 0.74 | 0.76 | 0.838 | 0.786 | 0.93 | 0.773 | 0.798 | 0.688 | 0.766 | – | 0.932 | 0.802 | 0.812 | 0.975 | 1.18 | 0.913 |
| EMC-BAC-2 | 0.547 | 0.541 | 0.654 | 0.395 | 1.1 | 0.935 | 1.02 | 0.642 | 0.511 | 0.437 | 0.414 | 0.366 | 0.803 | 0.704 | 0.461 | 0.23 | 0.867 | 0.79 | – | 0.611 |
| EPLC-272H | 0.442 | 0.31 | 0.326 | – | 0.643 | 0.595 | 0.604 | 0.496 | 0.729 | – | – | 0.341 | 0.851 | 1.03 | 0.823 | – | 1.13 | 1.18 | 1.12 | – |
| H3255 | – | 0.463 | 0.533 | 0.413 | 1.43 | 0.698 | 0.868 | 0.706 | 0.554 | 0.564 | 0.602 | 0.503 | 0.801 | 0.765 | 1.01 | 0.769 | 0.862 | 0.758 | 1.04 | 0.817 |
| HARA | 0.421 | 0.44 | 0.373 | 0.243 | – | 0.824 | 1.03 | 0.145 | 0.821 | 1.2 | 0.983 | 0.349 | – | 0.984 | 0.776 | 0.14 | 1 | – | 1.01 | 0.374 |
| HCC-15 | 0.702 | 0.653 | 0.802 | 0.585 | 1.1 | 0.99 | 1.1 | 0.764 | 0.715 | – | 0.688 | 0.597 | 0.872 | 0.85 | 0.738 | 0.773 | 0.893 | 0.778 | 0.882 | 0.734 |
| HCC-44 | 0.596 | 0.603 | 0.67 | 0.409 | – | – | – | – | 0.961 | 0.924 | 1.02 | 0.914 | 0.861 | 0.891 | 0.801 | 0.705 | 0.653 | 0.606 | 0.691 | 0.546 |
